In patent US7157555B1, “Exendin agonist compounds” (Amylin Pharmaceuticals, Inc., priority 1997, dated 2007):

System: gastric emptying in rats
Experiment: Gastric emptying in rats (phenol red gel gavage)
Type: in vivo, Male Harlan Sprague Dawley (HSD) rats
Description: This experiment followed a modification of the method of Scarpignato, et al., Arch.
Male Harlan Sprague Dawley (HSD) rats were used.
The determination of gastric emptying by the method described below was performed after a fast of −20 hours to ensure that the stomach contained no chyme that would interfere with spectrophotometric absorbance measurements.
Twenty minutes after gavage, rats were anesthetized using 5% halothane, the stomach exposed and clamped at the pyloric and lower esophageal sphincters using artery forceps, removed and opened into an alkaline solution which was made up to a fixed volume. Stomach content was derived from the intensity of the phenol red in the alkaline solution, measured by absorbance at a wavelength of 560 nm. In separate experiments on 7 rats, the stomach and small intestine were both excised and opened into an alkaline solution. […] To account for a maximal dye recovery of less than 100%, percent of stomach contents remaining after 20 min were expressed as a fraction of the gastric contents recovered from control rats sacrificed immediately after gavage in the same experiment. Percent gastric contents remaining=(absorbance at 20 min)/(absorbance at 0 mm)×100.
In baseline studies, with no drug treatment, gastric emptying over 20 min was determined.

For “exendin-4 acid: exendin agonist; synthesized according to standard peptide synthesis methods”, the “EC50 (inhibition of gastric emptying)” value (conscious rats, gastric contents remaining 20 min after gavage, dose-response) was 0.12 µg and the “Inhibition of gastric emptying (in words)” value (rats, FIG. 6 and Table II) was “potent inhibitors of gastric emptying”.
